Measurements reported in publication PMC10649274 (International Journal of Molecular Sciences, 2023).
Several values for one entry are separate records, joined by “and”; a condition that tells them apart may be missing. Equal values may be shown once. Entries after “also recorded” stand apart in the source; their conditions may differ. Read-outs that look alike come from different tables or passages of the source. Blank lines part the entries; values can stand above or below the molecule they belong to.

Key:
[1] = system: rat retinal excitotoxicity model; settings: cited from earlier work
[2] = system: native NMDA receptors; settings: cited from earlier work
[3] = system: native NMDA receptors; assay: Whole-cell patch clamp of NMDA plus glycine induced currents in isolated CA1 pyramidal neurons; assay type: cell-based, rat
Description: The rats were anesthetised with sevoflurane and then decapitated. The brains were brought out quickly and cooled to 2–4 °C. […] All experiments were performed at room temperature.
Vibrodissociation method was used to free CA1 pyramidal neurons from slices. This method allows for isolating cells without enzymatic treatment and keeping them in more native state. Pyramidal cells were isolated from the stratum pyramidale and distinguished from non-pyramidal cells on the basis of pyramidal-like somata and preserved apical dendrites.
To record membrane currents in response to applications of NMDA and glycine, the whole-cell configuration of patch clamp technique was used. Series resistance (<20 MΩ) was compensated by 70–80% and monitored during experiments. Only cells with stable holding currents were used in further analysis. The current signals were amplified using EPC-8 (HEKA Electronics, Lambrecht, Germany), filtered at 5 kHz, sampled, and stored on a personal computer. RSC-200 (BioLogic Science Instruments, Claix, France) perfusion system was used to apply the drugs under computer control. […] The pipettes with resistance of 2–5 MΩ were filled with the following solution (in mM): CsF 100, CsCl 40, NaCl 5, CaCl2 0.5, EGTA 5, HEPES 10 (pH adjusted to 7.2 with CsOH). […] Other reagents were purchased from MedChemExpress (Monmouth Junction, NJ, USA), Sigma (St. Louis, MO, USA), or Tocris Bioscience (Bristol, UK).
NMDA receptors were activated with 100 µM NMDA plus 10 µM glycine unless otherwise stated. […] Kinetics of transient processes of more than 20 ms duration were approximated with single or double exponential functions. In case of double exponential fitting, the weighted time constant was used.

[4] = molecular target: native NMDA receptors; assay: Analysis of voltage dependence of NMDA receptor block (Woodhull model with voltage-independent component, Equation (2)); assay type: cell-based, rat
Description: NMDA receptors were activated with 100 µM NMDA plus 10 µM glycine unless otherwise stated. The percentages of blocking of the steady-state or peak currents by different drug concentrations were measured at −80, −30 or +30 mV holding voltages. Kinetics of transient processes of more than 20 ms duration were approximated with single or double exponential functions. In case of double exponential fitting, the weighted time constant was used.
The voltage dependence of compounds’ action was analyzed with the classical Woodhull model with the addition of a voltage-independent component. […] Kb is the affinity of a drug for the channel, and δ is the electrical depth of the binding site. The δ value reflects the fraction of membrane electric field that the charged blocking molecule crosses on its pathway between the external media and the binding site in the channel.
Thus, we deduced Equation (2), taking it into account and assuming that the binding to the deep and shallow site is independent:(2) B=100−100/(1+C/(Kvd∗exp〖Fzδ/RTV〗)+C/Kvi+(C∗C)/((Kvd∗exp〖Fzδ/RTV〗∗Kvi))
In this equation, Kvd is the affinity of the drug to the deep site, Kvi—the affinity of the drug to the shallow site, and other parameters are the same as in Equation (1).
All experimental data are presented as the mean ± SD estimated from at least four experiments (cells). Significance of the effects was tested with t-tests. Differences were considered significant at p < 0.05. Concentration dependencies were approximated with Hill equation. Voltage dependencies were approximated with Equation (2). […] Approximation error values were taken as the precision measures.

[5] = system: native NMDA receptors; settings: cited from earlier work; remark: listed apart in the source
[6] = system: animal pancreatitis models; settings: cited from earlier work
[7] = molecular target: GLUN2B-containing NMDA receptor; settings: fractionated rat brain membranes; read-out: IC50 of [3H]ifenprodil binding inhibition; cited from earlier work
[8] = −80 mV holding voltage, native NMDA receptors, earlier papers of the authors, read-out: IC50, −80 mV
[9] = Equation (2) with fixed zδ (0.55 mono-, 1.1 dicationic), reanalysis of earlier data [16],[17], read-out: Kvd, fixed zδ (converted)
[10] = Equation (2) with fixed zδ (0.55 mono-, 1.1 dicationic), reanalysis of earlier data [16],[17], read-out: Kvi, fixed zδ (converted)
[11] = fit with consensus zδ, read-out: binding constant for the deep site (Kvd)
[12] = Equation (2) fit, zδ free, reanalysis of the authors' earlier voltage dependence data [16],[17], read-out: Kvd
[13] = Equation (2) fit, zδ free, reanalysis of the authors' earlier voltage dependence data [16],[17], read-out: Kvi
[14] = −30 mV, 1 mM Mg2+, read-out: IC50 in the presence of magnesium

SMILES: CN(C)C(=O)COC(=O)Cc1ccc(OC(=O)c2ccc(NC(=N)N)cc2)cc1 [Camostat]
retinal protection [1]: did not demonstrate retinal protection activities
inhibition of native NMDA receptors [2]: low activity; also recorded: practically ineffective
IC50 [2, 8]: > 100 µM

SMILES: NC(CCCP(=O)(O)O)C(=O)O [D-AP5]
inhibition at high NMDA concentrations ([3]; 5 µM, high NMDA concentrations): became weak, decaying to zero

Kd [4, 9]: 5000 µM
Kd [4, 10]: 3.16 µM
Kd [4, 11]: > 1000 µM
SMILES: N=C(N)c1ccc(-c2cc3ccc(C(=N)N)cc3[nH]2)cc1 [DAPI]
change of inhibition with increase of NMDA concentration ([3]; −30 mV): agonist-dependent
inhibition at 1 mM NMDA ([3]; −30 mV): remained significant
change of inhibition with increase of NMDA concentration from 30 to 1000 µM ([3]; −80 mV): agonist-dependent
voltage dependence of NMDA receptor inhibition [5]: Completely voltage-independent
type of channel block (interaction with channel gate) [2]: foot-in-the-door
IC50 [2, 8]: 3.1 ± 0.6 µM

Kd [4, 12]: ~600 µM
Kd [4, 13]: 14 ± 2 µM
Kd [4, 9]: 1500 µM
Kd [4, 10]: 14 ± 2 µM
Kd [4, 11]: > 1000 µM
SMILES: N=C(N)c1ccc(/N=N/Nc2ccc(C(=N)N)cc2)cc1 [Diminazene]
change of inhibition with increase of NMDA concentration ([3]; −30 mV): significant attenuation
inhibition at 1 mM NMDA ([3]; −30 mV): remained significant
change of inhibition with increase of NMDA concentration from 30 to 1000 µM ([3]; −80 mV): did not differ significantly
voltage dependence of NMDA receptor inhibition [5]: complex voltage dependence
type of channel block (interaction with channel gate) [2]: foot-in-the-door
IC50 [2, 8]: 13 ± 3 µM

Kd [4, 12]: 20 ± 5 µM
Kd [4, 13]: 3.4 ± 0.4 µM
Kd [4, 9]: 21.8 µM
Kd [4, 10]: 3.3 µM
SMILES: N=C(N)c1ccc(-c2ccc(-c3ccc(C(=N)N)cc3)o2)cc1 [Furamidine]
change of inhibition with increase of NMDA concentration from 30 to 1000 µM ([3]; holding voltage not stated): not attenuated significantly
voltage dependence of NMDA receptor inhibition [5]: strongly voltage-dependent
type of channel block (interaction with channel gate) [2]: foot-in-the-door
IC50 [2, 8]: 0.64 ± 0.13 µM

Kd [4, 12]: ~300 µM
Kd [4, 13]: 29 ± 8 µM
Kd [4, 9]: 800 µM
Kd [4, 10]: 25 µM
SMILES: CCOC(=O)c1ccc(OC(=O)CCCCCNC(=N)N)cc1 [Gabexate]
retinal protection [1]: did not demonstrate retinal protection activities
voltage dependence of NMDA receptor inhibition [5]: Completely voltage-independent
inhibition of native NMDA receptors [2]: inhibited native NMDA receptors
nature of voltage-independent inhibition [2]: agonist-dependent but non-competitive; also recorded: mostly voltage-independent and not competitive
type of channel block (interaction with channel gate) [2]: did not demonstrate any signs of a “foot-in-the-door” or trapping channel block
IC50 [2, 8]: 16 ± 3 µM

SMILES: CC(C(O)c1ccc(O)cc1)N1CCC(Cc2ccccc2)CC1 (stereo not drawn) [Ifenprodil, ifenprodil]
share of high-affinity component in inhibition of NMDA receptor currents ([2]; CA1 pyramidal cells, biphasic concentration dependence): approximately 60%

SMILES: CC12CC3CC(C)(C1)CC(N)(C3)C2 [Memantine]
IC50 [2, 14]: 6.4 ± 0.5 µM

Kd [4, 12]: 12 ± 3 µM
Kd [4, 13]: 2.9 ± 0.5 µM
Kd [4, 9]: 10 µM and 10.5 µM
Kd [4, 10]: 3 µM
SMILES: N=C(N)c1ccc2cc(OC(=O)c3ccc(N=C(N)N)cc3)ccc2c1 [Nafamostat]
retinal protection [1]: retinoprotective properties
change of inhibition with increase of NMDA concentration from 30 to 1000 µM ([3]; holding voltage not stated): not attenuated significantly
activity in animal pancreatitis models [6]: significant activity
voltage dependence of NMDA receptor inhibition [5]: strongly voltage-dependent
effect on plateau/peak ratio [2]: did not significantly change the plateau/peak ratio
overshoots after washout [2]: did not demonstrate overshoots
type of channel block (interaction with channel gate) [2]: foot-in-the-door
activity in the presence of magnesium ([2]; −30 mV, 1 mM Mg2+): attenuated in the presence of magnesium
IC50 [2, 14]: 1.7 ± 0.2 µM
IC50 [2, 8]: 0.2 ± 0.04 µM
IC50 [7]: 4.52 µM

SMILES: N=C(N)c1ccc(OCCCCCOc2ccc(C(=N)N)cc2)cc1 [Pentamidine]
Kd [4, 12]: 60 ± 25 µM
Kd [4, 13]: 8 ± 1 µM
Kd [4, 9]: 27 µM
Kd [4, 10]: 10 µM
change of inhibition with increase of NMDA concentration from 30 to 1000 µM ([3]; holding voltage not stated): not attenuated significantly
voltage dependence of NMDA receptor inhibition [5]: strongly voltage-dependent
IC50 (NMDA receptor antagonism) [2]: submicromolar range
type of channel block (interaction with channel gate) [2]: partial trapping
IC50 [2, 8]: 0.41 ± 0.08 µM

Kd ([4]; Equation (2) fit, zδ free, steady-state, read-out: Kvd, constant for voltage-dependent binding (deep site)): ~130 µM
Kd ([4]; Equation (2) fit, zδ free, steady-state, read-out: Kvi, constant for voltage-independent binding (shallow site)): 7 ± 1 µM
Kd ([4]; Equation (2) with fixed zδ 0.55 (monocation), read-out: Kvd, fixed zδ (converted)): 102 µM
Kd ([4]; Equation (2) with fixed zδ 0.55 (monocation), read-out: Kvi, fixed zδ (converted)): 7 ± 1 µM
IC50 ([3]; +30 mV holding voltage, steady-state, read-out: IC50, steady-state component): 5.8 ± 1.5 µM
IC50 ([3]; −30 mV, 1 mM Mg2+, n = 7, read-out: IC50 in the presence of magnesium): 3.6 ± 1.1 µM
IC50 ([3]; −30 mV, no Mg2+, n = 5, read-out: IC50 in the absence of magnesium): 3.6 ± 1 µM
IC50 ([3]; −80 mV holding voltage, NMDA 100 µM + glycine 10 µM, steady-state (plateau) current, read-out: IC50, steady-state component): 3.5 ± 0.3 µM
IC50 ([3]; −80 mV, NMDA 100 µM + glycine 10 µM, peak current, read-out: IC50, peak component): 1.8 ± 0.4 µM
SMILES: N=C(N)c1ccc2cc(OC(=O)c3ccc(NC4=NCCN4)cc3)ccc2c1 [Sepimostat]
voltage dependence of NMDA receptor inhibition ([4]; 5 µM): mostly voltage-independent with a small voltage-dependent component
retinal protection [1]: retinoprotective properties
nature of voltage-independent component of inhibition [3]: agonist-dependent but non-competitive
% block ([3]; 5 µM, 3 mM NMDA, +30 mV, n = 4): 25 ± 4%
% block ([3]; 5 µM, 3 mM NMDA, −30 mV, n = 10): 20 ± 5%
inhibition at high NMDA concentrations ([3]; 5 µM, 1000 and 3000 µM NMDA, −80 mV): about 50%
% block ([3]; 5 µM, +30 mV, representative trace, Figure 2A): 47%
% block ([3]; 5 µM, −30 mV, NMDA 30 µM, Figure 5A): 78%
% block ([3]; 5 µM, −30 mV, NMDA 1 mM, Figure 5A): 26%
% block ([3]; 5 µM, −30 mV, representative trace, Figure 2A): 49%
% block ([3]; 5 µM, −80 mV, NMDA 30 µM, Figure 5A): 78%
% block ([3]; 5 µM, −80 mV, NMDA 1 mM, Figure 5A): 44%
% block ([3]; 5 µM, −80 mV, representative trace, Figure 2A): 57%
% block ([3]; 5 µM, −120 mV, representative trace, Figure 2A): 72%
plateau/peak ratio in the presence of blocker ([3]; 10 µM, −80 mV, control 0.6 ± 0.1, n = 4): 1.1 ± 0.3
normalized plateau/peak ratio ((IBS/IB0)/(ICS/IC0)) ([3]; 10 µM, −80 mV, n = 4): 1.8 ± 0.1
trapping in double-pulse protocol ([3]; 30 µM, n = 5): no signs of trapping
τfall of overshoot ([3]; 30 µM, overshoot falling phase, n = 4): 770 ± 140 ms
τrise of overshoot ([3]; 30 µM, overshoot rising phase, n = 4): 62 ± 15 ms
amplitude of overshoot relative to steady-state control response ([3]; 30 µM, washout in the presence of agonists, n = 4): 1.8 ± 0.3
% block ([3]; 30 µM, −80 mV): > 90%
amplitude of tail currents relative to steady-state control response ([3]; 30 µM, −80 mV, washout in the absence of agonists, n = 6): 1.3 ± 0.5
change of inhibition with increase of NMDA concentration ([3]; −30 mV): attenuated
competition with Mg2+ for binding site in channel pore ([3]; −30 mV, 1 mM Mg2+): does not compete
change of inhibition with increase of NMDA concentration from 30 to 1000 µM ([3]; −80 mV): significantly decreased
type of channel block (interaction with channel gate) ([3]; −80 mV): foot-in-the-door
activity in animal pancreatitis models [6]: significant activity
IC50 [7]: 29.8 µM
